Here are results for six compounds from US8912224B2, “Substituted 2-(chroman-6-yloxy)-thiazoles and their use as pharmaceuticals” (Sanofi, priority 2011, dated 2014).

Assay [1] deals with Sprague-Dawley rats. Briefly: In vivo method for determining the effect on heart contractility (left ventricular dp/dtmax) in anesthetized rats. The settings on record: iv, rat, i.v. bolus injection, versus solvent control, read-out: Contractility increase (%). The protocol:
B) In vivo Method for Determining the Effect on Heart Contractility Adult male Sprague-Dawley rats (Harlan […], Germany) weighing 340 to 370 g were anesthetized with pentobarbital (100 mg/kg i.p.) and ventilated with a mixture of oxygen (40%) and room air (60%) at a tidal volume of 1 ml/100 g at 60 breaths/min. Body temperature was maintained at 36.5±0.3° C. with a heating lamp and was monitored with a rectal thermo sensor. Systemic blood pressure was measured in the left carotid artery using a pressure transducer (Combitrans; B. Braun Melsungen AG, Melsungen, Germany) connected to a DC-bridge-amplifier (PLUGSYS/ADC Type 663; Harvard Apparatus GmbH, March-Hugstetten, Germany). The electrocardiogram was measured as lead II via subcutaneously placed electrodes connected to a Heart-Rate-Module ([…] Type 669; Harvard Apparatus GmbH, March-Hugstetten, Germany). A micro-tip catheter (2 French, SPR-320; Millar Instruments, Houston, Tex., USA) was placed via the right carotid artery into the left ventricle, and the left ventricular pressure (LVP) and the end diastolic pressure (EDP) were continuously measured. Registration of the hemodynamic data was performed via an analog digital converter by a personal computer using Notocord software (HEM version 3.5). Left ventricular contractility (dp/dtmax) and relaxation (dp/dtmin) were calculated from the LVP signal. For intravenous administration of the test compounds, the left jugular vein was prepared and a PP-50 catheter was inserted. Test compounds were administered either by intravenous bolus injection or by intravenous infusion by means of an infusion pump (Unita; B. Braun Melsungen AG, Melsungen, Germany). […] In a typical experiment, several dosages of the test compound were administered subsequently at increasing doses. Statistical significance of the data obtained with drug vs control experiments, in which solvent was administered, was evaluated with the 2-sided ANOVA test (program Everstat). Increases in left ventricular contractility (percent increase) by example compounds are given in Table 3 in comparison to control experiments in which solvent was administered.

The target in assay [2] is human NCX1 (Homo sapiens (Human), UniProt P32418). Briefly: Inhibition of Ca2+ influx into cells (NCX1 reverse mode), FLIPR Fluo-4 assay. Format: cell-based. To be noted: inhibition of NCX1 in reverse mode (Ca2+ influx into cells); read-out: NCX1rv IC50. The source says: The sodium/calcium exchanger NCX1 can transport calcium ions and sodium ions through the cell membrane. The transport is an exchange of Ca^2+and Na^+in two directions depending on membrane potential and ion gradients. At the first direction, named “forward mode” or “calcium export mode”, Ca^2+is transported out of the cell and Na^+ is transported into the cell. At the other direction, named “reverse mode” or “calcium import mode”, the transport directions are vice versa. The effect of the compounds of the invention on NCX1 was determined in CHO cells stably expressing human NCX1 (gene symbol SLC8A1; cf. WO 2009/115238). The assay is based on the monitoring of intracellular Ca^2+concentrations using a calcium-sensitive fluorescence dye which is detected by means of a FLIPR device (Fluorimetric Imaging Plate Reader, Molecular Devices).
human NCX1, sequence (P32418 whole entry, looked up): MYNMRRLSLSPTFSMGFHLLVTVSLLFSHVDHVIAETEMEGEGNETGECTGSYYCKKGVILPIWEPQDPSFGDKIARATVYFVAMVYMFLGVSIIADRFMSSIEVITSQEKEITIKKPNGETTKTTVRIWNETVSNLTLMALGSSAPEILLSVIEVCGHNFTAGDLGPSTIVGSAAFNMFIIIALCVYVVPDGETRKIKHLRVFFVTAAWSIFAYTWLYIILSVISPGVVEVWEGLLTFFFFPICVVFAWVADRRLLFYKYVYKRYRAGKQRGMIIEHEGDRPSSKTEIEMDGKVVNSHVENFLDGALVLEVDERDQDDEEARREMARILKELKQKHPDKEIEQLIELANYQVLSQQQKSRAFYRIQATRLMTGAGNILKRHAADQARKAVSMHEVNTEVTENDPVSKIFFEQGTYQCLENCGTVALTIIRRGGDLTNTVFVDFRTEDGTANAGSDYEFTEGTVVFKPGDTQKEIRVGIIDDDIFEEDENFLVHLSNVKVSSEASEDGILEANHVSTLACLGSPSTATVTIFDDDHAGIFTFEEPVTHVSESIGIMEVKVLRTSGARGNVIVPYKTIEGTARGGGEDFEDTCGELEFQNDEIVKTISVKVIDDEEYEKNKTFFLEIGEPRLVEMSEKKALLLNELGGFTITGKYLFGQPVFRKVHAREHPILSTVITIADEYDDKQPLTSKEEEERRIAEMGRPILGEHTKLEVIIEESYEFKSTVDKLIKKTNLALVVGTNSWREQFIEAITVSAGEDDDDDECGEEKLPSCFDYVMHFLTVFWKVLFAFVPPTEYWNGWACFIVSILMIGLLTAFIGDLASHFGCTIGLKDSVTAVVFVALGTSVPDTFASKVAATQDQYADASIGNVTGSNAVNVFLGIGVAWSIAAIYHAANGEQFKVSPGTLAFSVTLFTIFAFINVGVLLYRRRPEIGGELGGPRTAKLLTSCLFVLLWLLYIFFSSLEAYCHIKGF
Assay Technology—Reverse Mode
The assay is based on the monitoring of intracellular Ca^2+concentrations using the calcium-sensitive dye Fluo-4. CHO cells expressing NCX1 were loaded with the dye by means of the acetoxymethyl ester Fluo-4 AM (Invitrogen, F14202), which is cleaved intracellularly by esterase activity to yield the charged species of free Fluo-4. After an preincubation period with the test compound, Gramicidine (Sigma, G5002) was added. Gramicidine is an ionophor for Na^+ions mediating an increase of intracellular Na^+ions. Consequently, intracellular Na^+ions are exchanged against extracellular Ca^2+ions (Ca^2+influx, reverse mode). The intracellular elevation of Ca^2+ ions was detected by measuring the fluorescence of Fluo-4 at a wavelength of 520 nm by a FLIPR device.
Briefly, for the reverse mode transport assay 18000 cells per well were seeded into a 96 well microplate (Corning COSTAR 3904) and incubated overnight in culture medium (1× Nut Mix F12 (Ham) (Gibco, 21765-029); 10% (v/v) fetal calf serum (PAA Gold, A15-649); 450 μg/ml Geneticin (Gibco, 10131-027)). A total volume of 100 μl medium per well was used. For the preparation of the FLIPR assay, the culture medium was removed from the plates and 100 μl of dye solution (2 μM Fluo-4 AM; 0.02% (v/v) Pluronic F-127 (20%, Invitrogen, P3000MP); 0.1% (v/v) bovine albumin solution (30% (v/v), Sigma, A9205) in assay buffer (133.8 mM NaCl (Sigma, S5886); 4.7 mM KCl (Sigma, P3911); 1.25 mM MgCl2 (Merck, 1.05833.0250); 3.5 mM CaCl2 (Merck, 1.02083.0250); 5 mM glucose (Sigma, G7021); 10 mM Hepes (Sigma, H4034); 0.01% (v/v) Pluronic F-127 (5%, Sigma, P2443); 2.5 mM Probenecid (Maybridge, SB00915EB); pH 7.4)) were added into each well. The plates were incubated in the dark at room temperature for 80 min. After the incubation period, the dye solution was removed and the wells were washed with 100 μl of assay buffer. Then 80 μl of a solution of the test compound in assay buffer in different concentrations were added into the wells. The plates were incubated at 16° C. for 45 min. Meanwhile a 60 μM solution of Gramicidine in assay buffer (4° C.) was prepared and stored in the wells of a 96 well microplate (96 well microplate, polypropylene, U-shape (Greiner Bio-One, 650201)) at 4° C. until measurement was started. The fluorescence monitoring was performed at 240 measuring points with measurement intervals of 2 sec. After the fifth measuring point, 40 μl of the Gramicidine solution were added to each well of the assay plates to give a final Gramicidine concentration of 20 μM. For the determination of the IC50 values the minimal fluorescence value was subtracted from the maximal fluorescence value for all measuring points. The calculation of the IC50 values via the percentage inhibitions of Ca^2+influx into cells (reverse mode) effected by the test compound was performed in Biost@t Speed 2.0.

On to `Cc1ccccc1[C@@H]1CCc2cc(Oc3ncc(C(=O)NCCO)s3)ccc2O1` [Example 326, 2-((S)-2-o-Tolyl-chroman-6-yloxy)-thiazole-5-carboxylic acid (2-hydroxy-ethyl)-amide], for which, in assay [1], the change in vivo at 0.1 mg/kg was 67%, the change in vivo at 0.3 mg/kg was 105% and the change in vivo at 1 mg/kg amounted to 138%. Moreover, the IC50 in assay [2] was 0.1 µM.

As for `Cc1ccccc1C1CCc2cc(Oc3ncc(CNC(=O)CN4CCCC4=O)s3)ccc2O1` (stereo not drawn) [Example 327, 2-(2-Oxo-pyrrolidin-1-yl)-N-[2-(2-o-tolyl-chroman-6-yloxy)-thiazol-5-ylmethyl]-acetamide], in assay [1], the change in vivo at 0.1 mg/kg amounted to 9%, the change in vivo at 0.3 mg/kg turned out to be 27% and the change in vivo at 1 mg/kg came out at 55%. In addition, the half-inhibitory concentration (IC50) in assay [2] amounted to 0.5 µM.

With `CCCNC(=O)c1cnc(Oc2ccc3c(c2)CCC(c2ccccc2C)O3)s1` (stereo not drawn) [Example 330, 2-(2-o-Tolyl-chroman-6-yloxy)-thiazole-5-carboxylic acid propylamide], in assay [1], the change in vivo at 0.1 mg/kg stood at 50%, the change in vivo at 0.3 mg/kg was found to be 86% and the change in vivo at 1 mg/kg was 161%. The IC50 in assay [2] was 0.3 µM.

Regarding `Cc1ccccc1C1CCc2cc(Oc3nc(C)c(C(=O)NCc4ccno4)s3)ccc2O1` (stereo not drawn) [Example 334, 4-Methyl-2-(2-o-tolyl-chroman-6-yloxy)-thiazole-5-carboxylic acid (isoxazol-5-ylmethyl)-amide], in assay [1], the change in vivo at 0.1 mg/kg was 19%, the change in vivo at 0.3 mg/kg came out at 41% and the change in vivo at 1 mg/kg amounted to 59%. Further, the half-inhibitory concentration (IC50) in assay [2] amounted to 0.5 µM.

Take `Cc1ccc(F)cc1C1CCc2cc(Oc3ncc(C(=O)NCCO)s3)ccc2O1` (stereo not drawn) [Example 342, 2-[2-(5-Fluoro-2-methyl-phenyl)-chroman-6-yloxy]-thiazole-5-carboxylic acid (2-hydroxy-ethyl)-amide]: in assay [1], the change in vivo at 0.1 mg/kg was found to be 38%, the change in vivo at 0.3 mg/kg turned out to be 73% and the change in vivo at 1 mg/kg was 146%. Moreover, the IC50 in assay [2] amounted to 0.4 µM.

For `CCCNC(=O)c1cnc(Oc2ccc3c(c2)CCC(c2cc(F)ccc2C)O3)s1` (stereo not drawn) [Example 343, 2-[2-(5-Fluoro-2-methyl-phenyl)-chroman-6-yloxy]-thiazole-5-carboxylic acid propylamide], in assay [1], the change in vivo at 0.1 mg/kg was determined as 20%, the change in vivo at 0.3 mg/kg came to 25% and the change in vivo at 1 mg/kg stood at 39%. For the same compound, the 50% inhibitory concentration (IC50) in assay [2] came to 0.5 µM.

What is called IC50 is the concentration that gives 50% inhibition.
